Patent US6489514B1, “(-)-Secoisolariciresinol as an antioxidant obtained from a new natural source namely stereospermum personatum” (Council of Scientific and Industrial Research, priority 2001, dated 2002)

How the values were obtained:
[1] = In vitro free radical scavenging antioxidant potency (DPPH); format: biochemical; conditions: 500 μM DPPH in ethanol, tris-HCl buffer pH 7.4, 45 minutes in dark, absorbency at 517 nm, triplicate
Description: Antioxidant activity of the compounds was tested for its capacity/potency to scavenge most widely used free radical, 1,1-diphenyl-2-picryl hyrazyl radical (DPPH). […] 200 μl of test compounds were reconstituted to 1 ml in tris-HCl buffer (pH 7.4). […] After incubation for 45 minutes in dark, the absorbency at 517 nm was recorder. Percent radical scavenging activity was calculated accordingly. All the readings were taken in triplicate.

SHBG = biological target: T1, SHBG (Homo sapiens, UniProt P04278); conditions: Z. Naturforsch, C. Biosc. 997,52,834-843; cited from earlier work
T1 sequence (P04278 30-402): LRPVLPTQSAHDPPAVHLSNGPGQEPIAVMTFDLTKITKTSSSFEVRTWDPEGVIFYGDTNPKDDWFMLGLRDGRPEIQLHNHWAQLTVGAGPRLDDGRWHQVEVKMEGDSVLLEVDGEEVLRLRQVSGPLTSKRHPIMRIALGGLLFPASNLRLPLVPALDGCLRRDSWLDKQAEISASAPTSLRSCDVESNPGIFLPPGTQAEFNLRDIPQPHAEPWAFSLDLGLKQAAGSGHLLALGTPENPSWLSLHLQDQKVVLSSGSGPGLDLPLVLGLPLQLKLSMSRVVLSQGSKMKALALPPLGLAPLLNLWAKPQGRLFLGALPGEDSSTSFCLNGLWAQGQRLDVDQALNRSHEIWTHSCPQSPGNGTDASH

[2] = Japanese Pat. No. JP0131J17; cited from earlier work
[3] = Japanese Pat No. JP02,101,011; cited from earlier work

SMILES	50% Radical scavenging concentration [1] [µg/mL]	Activity: binding to SHBG (SHBG)	Activity: antitumor [2] [Antitumor agent]	Activity: cardiotonic [3] [Cardiotonic]
Cc1c(C)c2c(c(C)c1O)CCC(C)(CCCC(C)CCCC(C)CCCC(C)C)O2 (stereo not drawn) [DL α- Tocopherol, reference compound]	47.80	–	–	–
COc1cc(CC(CO)C(CO)Cc2ccc(O)c(OC)c2)ccc1O (single isomer, unassigned; (-)) [(−)-Secoisolariciresinol, 2,3Bis-[4-hydroxy-3-(methoxyphenyl)methyl]-1,4-butanediol]	13.72	3. Binding to SHBG	1.	2.
